Literature values in patent US20130071408A1, “Methods for Diagnosis and Treatment of Non-Insulin Dependent Diabetes Mellitus” (priority 2010, published 2013).

Target: CD44 and HA (Homo sapiens, UniProt P16070)
Conditions: cell-based assay; read-out: IC50 value, inhibits the binding of CD44 and HA

CD44 and HA, sequence (P16070 21-742): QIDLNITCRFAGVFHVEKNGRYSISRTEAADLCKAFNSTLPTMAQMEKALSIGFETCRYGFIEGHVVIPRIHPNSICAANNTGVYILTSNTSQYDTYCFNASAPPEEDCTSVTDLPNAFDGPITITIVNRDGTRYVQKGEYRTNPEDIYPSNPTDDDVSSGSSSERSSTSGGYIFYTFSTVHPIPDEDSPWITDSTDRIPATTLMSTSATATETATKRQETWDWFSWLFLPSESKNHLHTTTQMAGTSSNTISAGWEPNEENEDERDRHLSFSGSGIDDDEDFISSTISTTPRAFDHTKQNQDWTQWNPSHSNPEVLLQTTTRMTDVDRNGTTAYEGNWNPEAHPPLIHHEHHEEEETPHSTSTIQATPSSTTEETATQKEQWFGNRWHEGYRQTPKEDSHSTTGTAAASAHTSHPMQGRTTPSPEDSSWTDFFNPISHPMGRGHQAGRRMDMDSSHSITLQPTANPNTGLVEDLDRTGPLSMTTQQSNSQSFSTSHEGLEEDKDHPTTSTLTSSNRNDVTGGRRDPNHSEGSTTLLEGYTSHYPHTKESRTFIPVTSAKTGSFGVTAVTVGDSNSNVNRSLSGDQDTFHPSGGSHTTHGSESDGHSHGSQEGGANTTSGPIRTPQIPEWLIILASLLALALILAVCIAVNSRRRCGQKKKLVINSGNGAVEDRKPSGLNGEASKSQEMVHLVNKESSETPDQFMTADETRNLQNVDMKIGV

IC50: 23.5 µM
Structure (SMILES): CCCCCCC(O)CCCC(CCCCCCCCCCCCCC(O)C(=O)O)OC1OCC(O)C(O)C1OC1OCC(OC(C)=O)C(O)C1OC1OC(COC(C)=O)C(O)C(O)C1O (stereo not shown) [F-19848 A]
